Assay results as given in the supplement of paper PMC12463676, “Small-molecule dissolution of stress granules by redox modulation benefits ALS models” (Nature Chemical Biology, 2025).

What follows are targets tested with O=[As]([O-])(O)O.[K+] [potassium arsenate] (assay: thermal stability z-score vs DMSO; higher = more thermally stabilized by treatment). Settings: HeLa; arsenate concentration 1 mM.
Experimental: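 Cellular thermal proteome profiling in HeLa cells treated with 1 mM arsenate for 1 h (DMSO pretreatment), heated to ten temperatures (37-66.3 °C). Soluble protein was quantified by TMT mass spectrometry relative to DMSO controls; the thermal stability score was transformed to a z-score; mean of n = 3 experiments.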
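Also: each temperature applied for 3 min, abundance score taken as mean log2 fold change at the two lowest temperatures, z-score obtained by mean subtraction and division by SD.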

UniProt Q9NWZ3, sequence (Q9NWZ3 whole entry): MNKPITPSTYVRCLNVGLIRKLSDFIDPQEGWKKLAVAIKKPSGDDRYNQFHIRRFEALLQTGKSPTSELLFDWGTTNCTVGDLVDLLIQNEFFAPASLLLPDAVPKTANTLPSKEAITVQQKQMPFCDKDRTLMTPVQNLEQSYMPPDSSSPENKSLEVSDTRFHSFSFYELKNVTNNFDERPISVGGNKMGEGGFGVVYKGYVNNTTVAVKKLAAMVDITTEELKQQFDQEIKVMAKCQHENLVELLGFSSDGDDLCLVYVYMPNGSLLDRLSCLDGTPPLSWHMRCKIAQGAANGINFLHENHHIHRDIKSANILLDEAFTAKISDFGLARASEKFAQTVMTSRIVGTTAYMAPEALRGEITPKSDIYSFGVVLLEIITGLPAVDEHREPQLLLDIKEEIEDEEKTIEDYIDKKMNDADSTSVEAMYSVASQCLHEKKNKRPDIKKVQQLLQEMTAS
UniProt Q9Y4F5, sequence (Q9Y4F5 whole entry): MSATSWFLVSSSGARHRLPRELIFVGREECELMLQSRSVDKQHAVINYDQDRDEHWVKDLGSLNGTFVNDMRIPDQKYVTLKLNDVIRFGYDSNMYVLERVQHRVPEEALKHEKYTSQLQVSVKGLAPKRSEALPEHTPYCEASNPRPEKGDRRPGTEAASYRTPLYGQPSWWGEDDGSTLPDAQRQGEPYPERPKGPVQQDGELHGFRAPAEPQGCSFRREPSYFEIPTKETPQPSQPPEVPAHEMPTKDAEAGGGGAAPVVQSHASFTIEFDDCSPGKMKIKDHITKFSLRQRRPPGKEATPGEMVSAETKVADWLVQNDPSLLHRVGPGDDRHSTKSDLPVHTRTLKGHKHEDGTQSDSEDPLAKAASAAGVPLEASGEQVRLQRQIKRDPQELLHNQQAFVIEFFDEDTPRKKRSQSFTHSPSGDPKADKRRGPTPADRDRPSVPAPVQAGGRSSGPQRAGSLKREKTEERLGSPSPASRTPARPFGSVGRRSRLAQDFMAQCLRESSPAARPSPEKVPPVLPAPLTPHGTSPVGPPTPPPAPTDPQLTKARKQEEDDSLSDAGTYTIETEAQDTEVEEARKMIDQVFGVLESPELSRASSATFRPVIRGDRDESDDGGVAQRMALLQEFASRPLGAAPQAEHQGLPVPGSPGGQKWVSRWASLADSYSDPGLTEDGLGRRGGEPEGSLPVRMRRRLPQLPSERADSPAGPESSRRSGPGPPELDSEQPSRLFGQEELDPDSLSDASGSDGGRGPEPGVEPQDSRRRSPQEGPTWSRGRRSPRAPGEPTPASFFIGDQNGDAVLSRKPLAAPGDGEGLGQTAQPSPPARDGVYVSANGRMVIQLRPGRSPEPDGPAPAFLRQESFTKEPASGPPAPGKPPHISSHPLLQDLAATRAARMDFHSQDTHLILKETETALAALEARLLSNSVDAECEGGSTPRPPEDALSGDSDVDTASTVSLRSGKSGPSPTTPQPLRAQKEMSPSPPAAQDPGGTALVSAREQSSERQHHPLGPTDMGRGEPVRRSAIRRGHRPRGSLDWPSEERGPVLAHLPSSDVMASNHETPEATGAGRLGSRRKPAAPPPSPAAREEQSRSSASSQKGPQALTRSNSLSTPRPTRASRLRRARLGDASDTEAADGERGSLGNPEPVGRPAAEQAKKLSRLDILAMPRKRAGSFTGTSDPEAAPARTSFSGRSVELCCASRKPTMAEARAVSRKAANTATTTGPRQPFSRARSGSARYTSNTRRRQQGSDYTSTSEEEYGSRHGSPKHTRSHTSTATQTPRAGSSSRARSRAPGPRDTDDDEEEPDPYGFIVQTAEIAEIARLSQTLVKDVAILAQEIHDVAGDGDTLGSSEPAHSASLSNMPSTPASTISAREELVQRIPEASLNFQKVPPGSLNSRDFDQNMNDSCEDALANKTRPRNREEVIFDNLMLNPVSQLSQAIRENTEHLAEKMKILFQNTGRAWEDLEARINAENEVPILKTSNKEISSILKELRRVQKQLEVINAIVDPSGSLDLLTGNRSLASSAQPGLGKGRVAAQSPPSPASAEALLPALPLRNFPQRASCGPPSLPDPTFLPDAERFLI
UniProt Q12824, sequence (Q12824 whole entry): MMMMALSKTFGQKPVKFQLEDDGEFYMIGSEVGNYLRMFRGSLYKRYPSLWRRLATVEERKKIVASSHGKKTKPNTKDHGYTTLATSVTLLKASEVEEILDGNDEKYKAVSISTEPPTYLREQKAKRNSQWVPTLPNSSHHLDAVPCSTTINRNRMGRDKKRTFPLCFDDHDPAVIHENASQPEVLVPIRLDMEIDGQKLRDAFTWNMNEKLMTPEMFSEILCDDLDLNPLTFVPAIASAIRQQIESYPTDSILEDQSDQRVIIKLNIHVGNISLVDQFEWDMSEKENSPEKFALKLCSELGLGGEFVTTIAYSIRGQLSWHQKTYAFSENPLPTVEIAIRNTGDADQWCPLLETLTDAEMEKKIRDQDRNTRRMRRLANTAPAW
UniProt O75144, sequence (O75144 whole entry): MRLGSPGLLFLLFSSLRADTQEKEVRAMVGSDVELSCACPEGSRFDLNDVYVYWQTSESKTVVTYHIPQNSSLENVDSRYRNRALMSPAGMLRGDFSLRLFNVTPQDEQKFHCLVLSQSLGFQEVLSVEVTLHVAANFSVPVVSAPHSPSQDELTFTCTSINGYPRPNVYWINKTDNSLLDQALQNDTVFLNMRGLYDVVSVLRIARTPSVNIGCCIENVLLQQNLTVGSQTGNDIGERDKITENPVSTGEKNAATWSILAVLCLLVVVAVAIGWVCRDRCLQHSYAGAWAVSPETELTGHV
UniProt Q9UIV1, sequence (Q9UIV1 whole entry): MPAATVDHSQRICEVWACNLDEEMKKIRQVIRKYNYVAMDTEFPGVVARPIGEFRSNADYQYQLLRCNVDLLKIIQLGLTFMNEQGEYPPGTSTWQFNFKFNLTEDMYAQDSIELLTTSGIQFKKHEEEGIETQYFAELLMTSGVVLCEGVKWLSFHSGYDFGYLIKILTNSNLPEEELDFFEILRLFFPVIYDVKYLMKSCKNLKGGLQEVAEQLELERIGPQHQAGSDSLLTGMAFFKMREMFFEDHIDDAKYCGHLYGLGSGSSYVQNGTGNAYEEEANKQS
UniProt Q9NVQ4, sequence (Q9NVQ4 whole entry): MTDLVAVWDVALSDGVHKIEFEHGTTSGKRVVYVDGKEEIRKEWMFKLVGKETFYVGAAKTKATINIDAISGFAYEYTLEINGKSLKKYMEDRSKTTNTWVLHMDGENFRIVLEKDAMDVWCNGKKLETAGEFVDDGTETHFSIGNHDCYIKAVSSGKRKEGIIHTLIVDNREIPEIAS
UniProt Q13825, sequence (Q13825 whole entry): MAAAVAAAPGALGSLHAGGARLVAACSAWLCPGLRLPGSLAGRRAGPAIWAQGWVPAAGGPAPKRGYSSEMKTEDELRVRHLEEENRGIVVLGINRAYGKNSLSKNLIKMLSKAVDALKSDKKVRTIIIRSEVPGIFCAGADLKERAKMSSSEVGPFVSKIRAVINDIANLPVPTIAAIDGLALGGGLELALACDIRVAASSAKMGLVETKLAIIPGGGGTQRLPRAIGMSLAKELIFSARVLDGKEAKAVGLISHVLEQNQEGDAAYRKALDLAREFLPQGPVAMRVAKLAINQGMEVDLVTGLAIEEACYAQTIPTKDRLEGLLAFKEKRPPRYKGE
UniProt P60228, sequence (P60228 whole entry): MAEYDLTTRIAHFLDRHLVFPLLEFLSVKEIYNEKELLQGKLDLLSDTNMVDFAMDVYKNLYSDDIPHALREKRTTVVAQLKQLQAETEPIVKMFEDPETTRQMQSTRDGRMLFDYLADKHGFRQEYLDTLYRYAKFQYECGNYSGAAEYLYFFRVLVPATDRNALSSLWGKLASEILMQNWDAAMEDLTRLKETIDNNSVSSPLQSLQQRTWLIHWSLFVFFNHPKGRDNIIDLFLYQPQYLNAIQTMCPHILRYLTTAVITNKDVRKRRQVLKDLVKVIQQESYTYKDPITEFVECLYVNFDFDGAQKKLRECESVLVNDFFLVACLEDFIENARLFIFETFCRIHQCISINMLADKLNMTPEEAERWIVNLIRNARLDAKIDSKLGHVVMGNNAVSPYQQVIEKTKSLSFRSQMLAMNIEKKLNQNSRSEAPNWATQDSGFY
UniProt Q96CV9, sequence (Q96CV9 whole entry): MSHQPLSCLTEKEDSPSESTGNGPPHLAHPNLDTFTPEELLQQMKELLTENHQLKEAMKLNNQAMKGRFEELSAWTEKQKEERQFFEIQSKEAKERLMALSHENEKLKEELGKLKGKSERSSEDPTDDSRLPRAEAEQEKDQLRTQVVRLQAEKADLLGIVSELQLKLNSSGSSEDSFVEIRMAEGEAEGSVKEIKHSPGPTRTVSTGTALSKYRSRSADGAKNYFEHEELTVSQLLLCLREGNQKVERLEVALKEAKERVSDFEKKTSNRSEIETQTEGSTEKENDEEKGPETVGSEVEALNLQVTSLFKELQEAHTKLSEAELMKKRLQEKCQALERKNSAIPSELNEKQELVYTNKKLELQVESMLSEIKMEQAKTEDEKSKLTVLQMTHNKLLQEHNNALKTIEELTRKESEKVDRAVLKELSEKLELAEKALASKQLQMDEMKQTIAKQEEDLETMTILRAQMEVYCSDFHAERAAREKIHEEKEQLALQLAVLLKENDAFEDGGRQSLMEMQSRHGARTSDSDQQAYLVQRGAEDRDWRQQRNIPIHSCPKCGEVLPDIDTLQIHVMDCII
UniProt O60927, sequence (O60927 whole entry): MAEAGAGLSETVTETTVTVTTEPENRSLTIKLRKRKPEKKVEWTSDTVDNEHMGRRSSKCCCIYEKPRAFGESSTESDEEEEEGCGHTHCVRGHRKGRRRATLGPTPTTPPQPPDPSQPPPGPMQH
UniProt O43760, sequence (O43760 whole entry): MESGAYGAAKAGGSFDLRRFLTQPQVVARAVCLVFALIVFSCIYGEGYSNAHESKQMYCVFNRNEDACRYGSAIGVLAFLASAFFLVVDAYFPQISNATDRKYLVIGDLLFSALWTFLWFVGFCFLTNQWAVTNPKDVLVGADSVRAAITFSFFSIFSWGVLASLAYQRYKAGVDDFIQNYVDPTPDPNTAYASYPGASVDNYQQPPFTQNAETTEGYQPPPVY

Target	thermal stability z-score
RMND1 (UniProt Q9NWS8)	0.244
CHMP1B (UniProt Q7LBR1)	0.0259
CEP170B (UniProt Q9Y4F5)	-0.201
PEX19 (UniProt P40855)	1.13
OPTN (UniProt Q96CV9)	1.01
OSBPL9 (UniProt Q96SU4)	0.219
PSMD13 (UniProt Q9UNM6)	-0.0407
PPP1R11 (UniProt O60927)	-0.187
FNIP1 (UniProt Q8TF40)	0.000327
SQSTM1 (UniProt Q13501)	0.758
NOP16 (UniProt Q9Y3C1)	-1.68
TBC1D22A (UniProt Q8WUA7)	-1.19
MRS2 (UniProt Q9HD23)	-1.27
RBM28 (UniProt Q9NW13)	-0.81
ANKHD1 (UniProt Q8IWZ3)	0.37
TRIM38 (UniProt O00635)	-0.447
CHTF8 (UniProt P0CG13)	0.975
HSP90AA1 (UniProt P07900)	0.428
MRPL20 (UniProt Q9BYC9)	-0.00694
ITPRIP (UniProt Q8IWB1)	-0.289
COMMD5 (UniProt Q9GZQ3)	0.0506
FAIM (UniProt Q9NVQ4)	0.336
MED25 (UniProt Q71SY5)	0.0488
AUH (UniProt Q13825)	0.0655
CAD (UniProt P27708)	-0.201
MCM6 (UniProt Q14566)	-0.919
QRICH1 (UniProt Q2TAL8)	0.0998
LY6K (UniProt Q17RY6)	2.42

Target	thermal stability z-score
IRAK4 (UniProt Q9NWZ3)	-0.11
AKAP9 (UniProt Q99996)	1.18
ACTR1B (UniProt P42025)	0.0363
ICOSLG (UniProt O75144)	-0.984
WDR1 (UniProt O75083)	-0.59
MED24 (UniProt O75448)	-0.0686
RPL34 (UniProt P49207)	-1.17
GPCPD1 (UniProt Q9NPB8)	2.8
ERGIC3 (UniProt Q9Y282)	-0.464
FURIN (UniProt P09958)	0.11
SYNGR2 (UniProt O43760)	-0.0246
GIPC3 (UniProt Q8TF64)	-0.214
NBN (UniProt O60934)	-0.469
PRPF31 (UniProt Q8WWY3)	-0.687
EIF3E (UniProt P60228)	-0.113
BMP2K (UniProt Q9NSY1)	0.122
SLC35F6 (UniProt Q8N357)	-0.279
MCAM (UniProt P43121)	0.512
CCDC88A (UniProt Q3V6T2)	1.3
MRPS25 (UniProt P82663)	0.445
PKN3 (UniProt Q6P5Z2)	0.231
SMARCB1 (UniProt Q12824)	-0.198
CNOT7 (UniProt Q9UIV1)	1.32
ATP6V1E1 (UniProt P36543)	0.637
UCKL1 (UniProt Q9NWZ5)	0.0426
CAPN15 (UniProt O75808)	-0.24
REEP4 (UniProt Q9H6H4)	0.579

Each target was assayed with NC(=O)CCCCC1CCSS1 [lipoamide] in the same assay as above. Settings: HeLa; lipoamide concentration 100 µM; arsenate co-treatment: 1 mM arsenate 1 h.
Experimental: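 Cellular thermal proteome profiling in HeLa cells. Cells were treated with 100 µM lipoamide for 1 h, with or without 1 mM arsenate for a further 1 h, then heated to ten temperatures (37-66.3 °C), and soluble protein was quantified by TMT mass spectrometry relative to 0.1% DMSO controls. The thermal stability score (sum of log2 fold changes minus the abundance score) was transformed to a z-score; mean of n = 3 experiments.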

Target	thermal stability z-score
RMND1 (UniProt Q9NWS8)	0.392
CHMP1B (UniProt Q7LBR1)	-0.234
CEP170B (UniProt Q9Y4F5)	-0.0863
PEX19 (UniProt P40855)	1.96
OPTN (UniProt Q96CV9)	-0.94
OSBPL9 (UniProt Q96SU4)	-0.647
PSMD13 (UniProt Q9UNM6)	-0.244
PPP1R11 (UniProt O60927)	0.0148
FNIP1 (UniProt Q8TF40)	0.272
SQSTM1 (UniProt Q13501)	-0.226
NOP16 (UniProt Q9Y3C1)	-0.153
TBC1D22A (UniProt Q8WUA7)	-1.16
MRS2 (UniProt Q9HD23)	0.937
RBM28 (UniProt Q9NW13)	-0.0361
ANKHD1 (UniProt Q8IWZ3)	-0.133
TRIM38 (UniProt O00635)	-0.0725
CHTF8 (UniProt P0CG13)	1.3
HSP90AA1 (UniProt P07900)	0.0337
MRPL20 (UniProt Q9BYC9)	0.411
ITPRIP (UniProt Q8IWB1)	-0.976
COMMD5 (UniProt Q9GZQ3)	-0.212
FAIM (UniProt Q9NVQ4)	1.03
MED25 (UniProt Q71SY5)	-0.264
AUH (UniProt Q13825)	-0.0558
CAD (UniProt P27708)	-0.284
MCM6 (UniProt Q14566)	-0.81
QRICH1 (UniProt Q2TAL8)	-0.132
LY6K (UniProt Q17RY6)	-3.06

Target	thermal stability z-score
IRAK4 (UniProt Q9NWZ3)	-0.11
AKAP9 (UniProt Q99996)	0.757
ACTR1B (UniProt P42025)	1.04
ICOSLG (UniProt O75144)	-0.136
WDR1 (UniProt O75083)	0.454
MED24 (UniProt O75448)	0.0619
RPL34 (UniProt P49207)	0.331
GPCPD1 (UniProt Q9NPB8)	0.65
ERGIC3 (UniProt Q9Y282)	-1.11
FURIN (UniProt P09958)	0.3
SYNGR2 (UniProt O43760)	0.329
GIPC3 (UniProt Q8TF64)	-0.481
NBN (UniProt O60934)	0.219
PRPF31 (UniProt Q8WWY3)	-0.0354
EIF3E (UniProt P60228)	-0.192
BMP2K (UniProt Q9NSY1)	-0.986
SLC35F6 (UniProt Q8N357)	-0.707
MCAM (UniProt P43121)	0.197
CCDC88A (UniProt Q3V6T2)	1.49
MRPS25 (UniProt P82663)	0.0295
PKN3 (UniProt Q6P5Z2)	-0.237
SMARCB1 (UniProt Q12824)	-0.25
CNOT7 (UniProt Q9UIV1)	-0.248
ATP6V1E1 (UniProt P36543)	0.0691
UCKL1 (UniProt Q9NWZ5)	-0.158
CAPN15 (UniProt O75808)	0.0525
REEP4 (UniProt Q9H6H4)	-0.55

Same assay, conditions: HeLa; lipoamide concentration 100 µM; arsenate co-treatment: none

Target	thermal stability z-score
RMND1 (UniProt Q9NWS8)	0.519
CHMP1B (UniProt Q7LBR1)	0.171
CEP170B (UniProt Q9Y4F5)	-0.0862
PEX19 (UniProt P40855)	1.51
OPTN (UniProt Q96CV9)	-0.477
OSBPL9 (UniProt Q96SU4)	-0.627
PSMD13 (UniProt Q9UNM6)	0.13
PPP1R11 (UniProt O60927)	-0.832
FNIP1 (UniProt Q8TF40)	0.0643
SQSTM1 (UniProt Q13501)	-0.109
NOP16 (UniProt Q9Y3C1)	-0.677
TBC1D22A (UniProt Q8WUA7)	-0.15
MRS2 (UniProt Q9HD23)	-0.861
RBM28 (UniProt Q9NW13)	-0.0267
ANKHD1 (UniProt Q8IWZ3)	-0.523
TRIM38 (UniProt O00635)	-0.0917
CHTF8 (UniProt P0CG13)	0.577
HSP90AA1 (UniProt P07900)	0.301
MRPL20 (UniProt Q9BYC9)	0.239
ITPRIP (UniProt Q8IWB1)	-0.936
COMMD5 (UniProt Q9GZQ3)	0.573
FAIM (UniProt Q9NVQ4)	0.411
MED25 (UniProt Q71SY5)	-0.252
AUH (UniProt Q13825)	0.0366
CAD (UniProt P27708)	-1.08
MCM6 (UniProt Q14566)	-0.253
QRICH1 (UniProt Q2TAL8)	-0.0369
LY6K (UniProt Q17RY6)	-2.7

Target	thermal stability z-score
IRAK4 (UniProt Q9NWZ3)	-0.0699
AKAP9 (UniProt Q99996)	1.46
ACTR1B (UniProt P42025)	0.945
ICOSLG (UniProt O75144)	-0.0493
WDR1 (UniProt O75083)	0.0649
MED24 (UniProt O75448)	-0.0126
RPL34 (UniProt P49207)	0.134
GPCPD1 (UniProt Q9NPB8)	0.136
ERGIC3 (UniProt Q9Y282)	-0.784
FURIN (UniProt P09958)	0.345
SYNGR2 (UniProt O43760)	0.548
GIPC3 (UniProt Q8TF64)	-0.0967
NBN (UniProt O60934)	0.275
PRPF31 (UniProt Q8WWY3)	-0.524
EIF3E (UniProt P60228)	0.126
BMP2K (UniProt Q9NSY1)	-0.217
SLC35F6 (UniProt Q8N357)	-0.328
MCAM (UniProt P43121)	-0.281
CCDC88A (UniProt Q3V6T2)	0.586
MRPS25 (UniProt P82663)	0.0583
PKN3 (UniProt Q6P5Z2)	0.334
SMARCB1 (UniProt Q12824)	-0.186
CNOT7 (UniProt Q9UIV1)	0.895
ATP6V1E1 (UniProt P36543)	-0.201
UCKL1 (UniProt Q9NWZ5)	-0.483
CAPN15 (UniProt O75808)	0.0796
REEP4 (UniProt Q9H6H4)	-0.227
